According to PubChem BioAssay (NCI):
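Assay format: 96-well plates, 48-hour exposure. GI50 marks 50% less growth. At the TGI there is no net growth.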

Columns and labels:
Assay in all cases: NCI-60 cell line screen, 48 h
U251 CNS = tested on: U251 CNS
UACC-257 melanoma = tested on: UACC-257 melanoma
SNB-19 CNS = tested on: SNB-19 CNS
RXF 393 renal = tested on: RXF 393 renal
OVCAR-3 ovarian = tested on: OVCAR-3 ovarian
ACHN renal = tested on: ACHN renal
SN12C renal = tested on: SN12C renal
M14 melanoma = tested on: M14 melanoma
MCF7 breast = tested on: MCF7 breast
T-47D breast = tested on: T-47D breast

Work on `O=S1(=O)C[C@@H](O)[C@H](O)CS1` yielded a TGI (U251 CNS) greater than 100 µM, a TGI (UACC-257 melanoma) greater than 100 µM and a TGI (SNB-19 CNS) greater than 100 µM. For the same compound, the TGI (RXF 393 renal) was greater than 100 µM, the TGI (OVCAR-3 ovarian) was greater than 100 µM and the TGI (ACHN renal) was greater than 100 µM. The TGI (SN12C renal) was greater than 100 µM and the TGI (M14 melanoma) was greater than 100 µM.
`CC(=O)Nc1ccc(C2[C@H]3C(=O)N(c4ccc(Cc5ccc(N6C(=O)[C@@H]7ON(c8ccccc8)C(c8ccc(NC(C)=O)cc8)[C@@H]7C6=O)cc5)cc4)C(=O)[C@H]3ON2c2ccccc2)cc1` (stereo partly specified) showed a TGI (U251 CNS) greater than 100 µM, a TGI (UACC-257 melanoma) greater than 100 µM and a TGI (SNB-19 CNS) greater than 100 µM. It also gave a TGI (RXF 393 renal) greater than 100 µM, a TGI (OVCAR-3 ovarian) greater than 100 µM and a TGI (ACHN renal) greater than 100 µM. It also gave a TGI (SN12C renal) greater than 100 µM and a TGI (M14 melanoma) of 79.8 µM.
`COC(=O)c1ccc(N=NN(C)CO)cc1` was tested, and the TGI (U251 CNS) was greater than 100 µM, the TGI (UACC-257 melanoma) was greater than 100 µM and the TGI (SNB-19 CNS) was greater than 100 µM. It also gave a TGI (RXF 393 renal) greater than 100 µM, a TGI (OVCAR-3 ovarian) greater than 100 µM and a TGI (ACHN renal) greater than 100 µM. For the same compound, the TGI (SN12C renal) was greater than 100 µM and the TGI (M14 melanoma) was greater than 100 µM.
With `CC(=O)/C=C/c1ccc(C2CC(C)=Nc3c(ccc4c3C(=O)c3ccccc3C4=O)N2)cc1` (stereo unspecified) the TGI (U251 CNS) was greater than 100 µM, the TGI (SNB-19 CNS) was greater than 100 µM and the TGI (RXF 393 renal) was greater than 100 µM. It also gave a TGI (OVCAR-3 ovarian) greater than 100 µM, a TGI (ACHN renal) greater than 100 µM and a TGI (SN12C renal) greater than 100 µM. For the same compound, the TGI (M14 melanoma) was greater than 100 µM.
For `CN(c1ccccc1)C(c1ccccc1)C(O)c1ccccc1` (stereo unspecified), the TGI (U251 CNS) was 33.2 µM, the TGI (UACC-257 melanoma) was 35.6 µM and the TGI (SNB-19 CNS) was 36.4 µM. For the same compound, the TGI (OVCAR-3 ovarian) was 32 µM, the TGI (ACHN renal) was 54.4 µM and the TGI (SN12C renal) was 31.3 µM. The TGI (M14 melanoma) was 30.4 µM.
With `COc1ccc(/C=C2/C[N+](C)(C)C/C(=C/c3ccc(OC)cc3)C2=O)cc1` the TGI (U251 CNS) was greater than 63.9 µM, the TGI (UACC-257 melanoma) was greater than 100 µM and the TGI (SNB-19 CNS) was greater than 100 µM. The TGI (RXF 393 renal) was greater than 100 µM, the TGI (OVCAR-3 ovarian) was 98.5 µM and the TGI (ACHN renal) was greater than 100 µM. For the same compound, the TGI (SN12C renal) was greater than 100 µM and the TGI (M14 melanoma) was greater than 100 µM.
`CC(C)(O)C1OCC(C2CCC3(C)C4=CCC5C(C)(C)C(O)CCC5(C)C4CCC23C)CC1O` (stereo unspecified) showed a TGI (MCF7 breast) of 23.8 µM, a TGI (U251 CNS) of 27.5 µM and a TGI (T-47D breast) of 26.6 µM. For the same compound, the TGI (UACC-257 melanoma) was 39.3 µM, the TGI (SNB-19 CNS) was 36.9 µM and the TGI (OVCAR-3 ovarian) was 40 µM. The TGI (ACHN renal) was 28.6 µM, the TGI (SN12C renal) was 27.5 µM and the TGI (M14 melanoma) was greater than 100 µM.
`COC(=O)c1c(CC#N)cccc1CC#N` showed a TGI (U251 CNS) greater than 100 µM, a TGI (UACC-257 melanoma) greater than 100 µM and a TGI (SNB-19 CNS) greater than 100 µM. It also gave a TGI (RXF 393 renal) greater than 100 µM, a TGI (OVCAR-3 ovarian) greater than 100 µM and a TGI (ACHN renal) greater than 100 µM. The TGI (SN12C renal) was greater than 100 µM and the TGI (M14 melanoma) was greater than 100 µM.
`CCOC(=O)CC1=CSC2=NCCN12` showed a TGI (U251 CNS) greater than 100 µM, a TGI (UACC-257 melanoma) greater than 100 µM and a TGI (SNB-19 CNS) greater than 100 µM. The TGI (RXF 393 renal) was greater than 100 µM, the TGI (OVCAR-3 ovarian) was greater than 100 µM and the TGI (ACHN renal) was greater than 100 µM. It also gave a TGI (SN12C renal) greater than 100 µM and a TGI (M14 melanoma) greater than 100 µM.
With `N.N.NC(CS)C(=O)[O-].NC(CS)C(=O)[O-].[Pt+4]` (stereo unspecified) the GI50 (U251 CNS) was greater than 50 µM, the TGI (U251 CNS) was greater than 50 µM and the GI50 (UACC-257 melanoma) was greater than 50 µM. For the same compound, the TGI (UACC-257 melanoma) was greater than 50 µM, the GI50 (SNB-19 CNS) was greater than 50 µM and the TGI (SNB-19 CNS) was greater than 50 µM. It also gave a GI50 (RXF 393 renal) greater than 50 µM, a TGI (RXF 393 renal) greater than 50 µM and a GI50 (OVCAR-3 ovarian) greater than 50 µM. It also gave a TGI (OVCAR-3 ovarian) greater than 50 µM, a GI50 (ACHN renal) greater than 50 µM and a TGI (ACHN renal) greater than 50 µM. The GI50 (SN12C renal) was greater than 50 µM, the TGI (SN12C renal) was greater than 50 µM and the GI50 (M14 melanoma) was greater than 50 µM. For the same compound, the TGI (M14 melanoma) was greater than 50 µM.
`O=C([CH-]C(=O)c1ccccc1)c1ccccc1.O=C([CH-]C(=O)c1ccccc1)c1ccccc1.[Nd+3].[OH-].[OH3+]` showed a GI50 (U251 CNS) of 7.13 µM, a TGI (U251 CNS) of 40.3 µM and a GI50 (UACC-257 melanoma) of 15.2 µM. It also gave a TGI (UACC-257 melanoma) of 41.9 µM, a GI50 (SNB-19 CNS) of 8.19 µM and a TGI (SNB-19 CNS) of 44.9 µM. It also gave a GI50 (OVCAR-3 ovarian) of 8.31 µM, a TGI (OVCAR-3 ovarian) of 26.6 µM and a GI50 (ACHN renal) of 10.1 µM. For the same compound, the TGI (ACHN renal) was 30.1 µM, the GI50 (SN12C renal) was 12.6 µM and the TGI (SN12C renal) was 70.7 µM. For the same compound, the GI50 (M14 melanoma) was 13.7 µM and the TGI (M14 melanoma) was 32.6 µM.
Work on `O=c1cc2ccccc2nn1-c1ccccc1Cl` yielded a TGI (U251 CNS) greater than 100 µM, a TGI (UACC-257 melanoma) greater than 100 µM and a TGI (SNB-19 CNS) greater than 100 µM. It also gave a TGI (OVCAR-3 ovarian) greater than 100 µM, a TGI (ACHN renal) greater than 100 µM and a TGI (SN12C renal) greater than 100 µM. It also gave a TGI (M14 melanoma) greater than 100 µM.
For `CS(=O)c1ccc(COP(N)(=O)N(CCCl)CCCl)cc1` (stereo unspecified), the TGI (U251 CNS) was greater than 100 µM, the TGI (UACC-257 melanoma) was greater than 100 µM and the TGI (SNB-19 CNS) was greater than 100 µM. The TGI (RXF 393 renal) was greater than 100 µM, the TGI (OVCAR-3 ovarian) was greater than 100 µM and the TGI (ACHN renal) was greater than 100 µM. It also gave a TGI (SN12C renal) greater than 100 µM and a TGI (M14 melanoma) greater than 100 µM.
Work on `C=C1CC[C@@H]2C(C)(C)CCC[C@@]2(C)[C@@H]1Cc1cc(O)ccc1O` yielded a TGI (U251 CNS) of 14.5 µM, a TGI (UACC-257 melanoma) of 5.78 µM and a TGI (SNB-19 CNS) of 21.9 µM. It also gave a TGI (RXF 393 renal) of 5.18 µM, a TGI (OVCAR-3 ovarian) of 18.5 µM and a TGI (ACHN renal) of 11.8 µM. It also gave a TGI (SN12C renal) of 15.6 µM and a TGI (M14 melanoma) of 24.3 µM.
Compound `O=C(O)C12C3CCCC1C2CC3` (stereo unspecified) has a TGI (U251 CNS) greater than 100 µM, a TGI (UACC-257 melanoma) greater than 100 µM and a TGI (SNB-19 CNS) greater than 100 µM. For the same compound, the TGI (RXF 393 renal) was greater than 100 µM, the TGI (OVCAR-3 ovarian) was greater than 100 µM and the TGI (ACHN renal) was greater than 100 µM. The TGI (SN12C renal) was greater than 100 µM and the TGI (M14 melanoma) was greater than 100 µM.
Work on `CC1NOC(=O)C1N=Nc1ccccc1Cl` (stereo unspecified) yielded a TGI (U251 CNS) greater than 100 µM, a TGI (UACC-257 melanoma) of 47 µM and a TGI (SNB-19 CNS) greater than 100 µM. It also gave a TGI (RXF 393 renal) greater than 100 µM, a TGI (OVCAR-3 ovarian) greater than 100 µM and a TGI (ACHN renal) greater than 100 µM. The TGI (SN12C renal) was greater than 100 µM and the TGI (M14 melanoma) was greater than 100 µM.
`COc1nc(C)cc2c(=O)n(-c3ccccc3)n(CCCN3CCN(c4ccc(Cl)cc4)CC3)c(=O)c12` gave a GI50 (MCF7 breast) of 37.7 µM, a TGI (MCF7 breast) greater than 50 µM and a GI50 (U251 CNS) of 32.1 µM. It also gave a TGI (U251 CNS) greater than 50 µM, a GI50 (T-47D breast) greater than 50 µM and a TGI (T-47D breast) greater than 50 µM. The GI50 (SNB-19 CNS) was 18.8 µM, the TGI (SNB-19 CNS) was greater than 50 µM and the GI50 (OVCAR-3 ovarian) was 24.6 µM. For the same compound, the TGI (OVCAR-3 ovarian) was greater than 50 µM, the GI50 (ACHN renal) was greater than 50 µM and the TGI (ACHN renal) was greater than 50 µM. For the same compound, the GI50 (SN12C renal) was greater than 50 µM, the TGI (SN12C renal) was greater than 50 µM and the GI50 (M14 melanoma) was 46.6 µM. For the same compound, the TGI (M14 melanoma) was greater than 50 µM.
